Experimental data from publication PMC10229426, “An optimized bioluminescent substrate for non-invasive imaging in the brain” (Nature Chemical Biology, 2023).
Entries after “also recorded” stand apart in the source; their conditions may differ.

How the values were obtained:
[1] = target: T1, Antares luciferase (Oplophorus gracilirostris, UniProt Q9GV45, A31E/A60N/A81I/F95D/I117V/K70R/L54V/L99Q/M102K/N193R/P142E/Q151K/Q38R/Q45L/V71I/Y165I); test: Bioluminescence imaging of transgenic mice for substrate comparison (brain, Cre-driven Antares); assay type: in vivo, mouse
T1 construct: expressed in transfected cells; host or cells: transgenic mice with CAG-LSL-Antares at the H11 locus, crossed to Cre driver lines (neurons or liver)
T1 sequence (Q9GV45 other isoform, or with tags, fused parts or gaps with the stated changes): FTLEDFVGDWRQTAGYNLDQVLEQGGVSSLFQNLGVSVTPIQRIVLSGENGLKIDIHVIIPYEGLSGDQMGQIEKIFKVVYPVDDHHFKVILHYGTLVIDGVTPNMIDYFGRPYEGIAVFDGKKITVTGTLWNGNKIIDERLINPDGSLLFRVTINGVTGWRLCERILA
From the text: Transgenic reporter mice with LSL-CAG-luciferase (Antares, FLuc or AkaLuc) inserted at the H11 locus (H11P) were generated by φC31-mediated recombination in blastocysts[48] by the Stanford Transgenic, Knockout and Tumor Model Center. For substrate comparisons, 2- to 4-month-old transgenic mice doubly hemizygous for a Camk2a-cre (Jackson Laboratory, 005359), Vgat-IRES-cre (Jackson Laboratory), Vglut2-IRES-cre (Jackson Laboratory, 016963) or Alb-cre (Jackson Laboratory, 003574) driver and a CAG-LSL-Antares, CAG-LSL-AkaLuc or CAG-LSL-FLuc reporter were anesthetized by inhalation of isoflurane for 5 min. An electric shaver was used to remove scalp hair in Camk2a-cre, Vglut2-IRES-cre or Vgat-IRES-cre mice or abdominal hair in Alb-cre mice. Nair depilatory cream (Church and Dwight) was then applied to the shaved area for 1 min, and remaining hair was removed with a piece of sterile gauze. The area was then rinsed with DPBS and cleaned with 70% ethanol with a piece of sterile gauze.
For mice expressing Antares, indicated amounts of Fz were dissolved in 480 µl of a PEG-300-based formulation consisting of 10% glycerol, 10% ethanol, 10% hydroxypropylcyclodextrin and 35% PEG-300 in water, or indicated amounts of lyophilized Fz analogs with P-407 vehicle were reconstituted in 150–500 µl of DPBS buffer. For mice expressing FLuc, indicated amounts of D-luciferin were dissolved in PBS. For mice expressing AkaLuc, 3 μmol (1.0 mg) of AkaLumine-HCl (Sigma-Aldrich) was dissolved in 150 μl of 0.9% NaCl. Substrates were then injected into the peritoneal cavity in the left lower quadrant, with the maximum injectable volume at 480 µl. Immediately after substrate injection, bioluminescent images were acquired in an Ami HT bioluminescence imaging system running Aura software version 3.1 or 4.0 (Spectral Instruments Imaging) for 15–30 min at intervals of 1 min. For comparing substrates at 1.3 µmol, the following imager settings were used: emission filter open, field of view of 25 cm, f-stop of 1.2, binning of 2 × 2 and exposure time of 2 s. For comparison with >1.3-µmol substrates, the following settings were used: emission filter open, field of view of 25 cm, f-stop of 1.2, binning of 1 × 1 and exposure time of 1 s. Pseudocolor images and intensity scale bars were generated with Aura software. Integrated luminescence was quantified using the Fiji version of the ImageJ program (NIH)[49], with further statistical analysis performed in GraphPad Prism (version 9.0.0).

[2] = target: Antares (Oplophorus gracilirostris, UniProt Q9GV45, A31E/A60N/A81I/F95D/I117V/K70R/L54V/L99Q/M102K/N193R/P142E/Q151K/Q38R/Q45L/V71I/Y165I); test: Enzymatic analysis of Antares and Fz analogs; assay type: biochemical; set-up: His tag (inferred from purification on HisLink resin); made in house; host or cells: Escherichia coli; conditions: for Relative kcat: relative to Fz
Chain of Antares (Q9GV45 other isoform, or with tags, fused parts or gaps with the stated changes): as above
Method: Two milliliters of LB broth with 100 µg ml^–1 ampicillin was inoculated with a single colony of clone ATG-3802 (Antares codon optimized for Escherichia coli) and grown overnight at 37 °C. On the following day, the overnight culture was diluted 1:100 into a flask containing 50 ml of Terrific Broth and 100 µg ml^–1 ampicillin. The sample was grown at 37 °C with shaking (275 r.p.m.) for 4 h. The culture was chilled on ice, and 1% rhamnose was added to induce protein expression. The culture was placed in a 15 °C shaker (275 r.p.m.) and grown for 48 h. Cells were collected by centrifugation and resuspended in 10 ml of 100 mM HEPES (pH 7.5), 150 mM NaCl, 10 mM imidazole and 1 mg ml^–1 lysozyme. The resuspended cells were sonicated on ice (5 s on, 5 s off for 2 min, 12 amplitude). The sample was centrifuged (12,000g for 15 min), and 1 ml of HisLink resin (Promega) was added to the cleared lysate. Samples were incubated at 4 °C on an orbital mixer for 2 h. After incubation, the resin was washed three times with HisLink wash buffer (Promega). After the final wash, the sample was eluted (incubated 3 min with mixing) two times with 1 ml of HisLink elution buffer (Promega). The sample was dialyzed (10-kDa molecular weight cutoff, Thermo Fisher Slide-A-Lyzer) for 24 h in TBS and 50% glycerol.
To quantify luminescence as a function of substrate concentration, substrates were diluted to 30 μM and serially diluted in twofold steps into DPBS with 0.01% BSA in triplicate. Fifty microliters of each substrate dilution was then mixed with 50 μl of a solution of 20 pM Antares protein in DPBS with 0.01% BSA. Luminescence was measured immediately using a GloMax-Multi+ luminometer (Promega). Km and Vmax were then calculated using the Michaelis–Menten non-linear regression function in the program Prism (GraphPad).

Compound | brain signal distribution ([1]; Antares driven by Camk2a-cre) | brain signal distribution ([1]; i.p., CAG-LSL-Antares x Vgat-IRES-cre mice) | Km [2] | Relative kcat [2] | brain brightness relative to Fz ([1]; 1.3 µmol i.p., Antares driven by Vglut2-IRES-cre or Camk2a-cre, listed as CFz) | peak light production in the brain relative to Fz ([1]; 1.3 μmol i.p., CAG-LSL-Antares x Vgat-IRES-cre) | brain bioluminescence of 4.2 µmol dose relative to 1.3-μmol dose ([1]; 4.2 µmol CFz with 20 mg P-407, i.p.) | peak brain signal relative to AkaLuc with AkaLumine ([1]; Antares with 1.3 µmol CFz vs AkaLuc with 3.0 µmol AkaLumine, i.p., Vgat-cre or Camk2a-cre double hemizygotes, listed as CFz) | kinetics of brain signal relative to AkaLuc–AkaLumine ([1]; Antares–CFz) | signal from the brain relative to D-luciferin with firefly luciferase ([1]; CFz paired with Antares)
O=c1c(Cc2ccco2)nc2c(Cc3ccccc3)[nH]c(-c3ccccc3)cn1-2 [Fz, furimazine, reference compound] | expected forebrain-enriched signal | signal from both the forebrain and hindbrain | 0.38 µM | 1.0 |  |  |  |  |  | 
O=c1c(Cc2ccco2)nc2c(Cc3ccccc3)[nH]c(-c3cccc(F)c3F)cn1-2 [compound 6, cephalofurimazine] |  |  | 0.47 µM | 1.33 | at least 2.5 fold | significantly brighter | 6.5 fold | matches AkaLuc–AkaLumine/TokeOni in brightness; also recorded: comparable peak signal | rise and decay more quickly | greater than 20 fold
